Assay results: patent publication US10939684B2, “Preparation of sulfonamide-containing antimicrobials and substrate treating compositions of sulfonamide-containing antimicrobials” (NANO SAFE COATINGS INCORPORATED, priority 2015, dated 2021)
“Also recorded” adds a separate entry of the source.

System: Arthrobacter spp.
Assay: Large-droplet inoculation method, antimicrobial efficacy at solid-air interfaces
Type: cell-based
Details: for Average: average of A-C; for A (cfu): replicate A; for B (cfu): replicate B; for C (cfu): replicate C
Source text: Large-droplet inoculation method (Ronan E. et al, Biofouling 2013, 29, 1087-1096) Many pathogens are able to remain viable during extended periods of desiccation on inanimate surfaces. Long-term survival of pathogens in the inanimate environment pose a significant risk for infection transmission and contamination in high-risk environments such as hospital rooms or food-processing plants. The large-droplet inoculation method was developed to simulate the deposition of bacterial species onto exposed surfaces and to determine the ability of these cells to survive desiccation.
For these tests, small surface coupons were first coated with the antimicrobial using the method described above. Bacterial test species were grown overnight in a shaking incubator and cultures
were washed twice to replace the growth media with sterile water. 100 μL aliquots of the prepared culture were then inoculated onto multiple coated surfaces and allowed to air-dry within a biological safety cabinet. Drying typically occurred 2-3 hours after inoculation, and surviving cells were enumerated immediately and 24 hours after drying. For enumeration, inoculated coupons were sacrificed in triplicate and placed inside separate tubes containing 5 mL of a 0.9% saline collection liquid. Each coupon was agitated vigorously for 1 minute with a bench-top vortex to transfer cells from the test surface to the collection liquid. Plate counts were then performed on serial dilutions of the collection liquid, and colony counts from triplicate treated surfaces were averaged and compared to colony counts from tests of untreated control surfaces carried out in parallel.
A range of bacterial species were used in these tests. Arthrobacter spp., a gram-positive lab strain originally isolated from indoor air was used in the bulk of the testing, as it is known to be highly resistant to desiccation and therefore was used as a model for desiccation-tolerant pathogens. Efficacy tests were also carried out against, for example, gram-negative Escherichia coli (E. coli) and gram-positive Staphylococcus aureus (S. aureus), since they all contain pathogenic strains and have been implicated in major nosocomial outbreaks. […] The following are the tabulated bacterial reduction data: […]

[1] = treated cotton, compared to untreated control (FIG. 3, FIG. 4)
[2] = treated cotton, 3 hours, load 6.10E+07
[3] = treated cotton, 24 hours, load 6.10E+07
[4] = treated polyethylene, 3 hours, load 2.70E+07
[5] = treated polyethylene, 24 hours, load 2.70E+07
[6] = treated cotton, 3 hours, load 1.28E+08
[7] = treated cotton, 3 hours, load 4.04E+07
[8] = treated cotton, 24 hours, load 1.28E+08
[9] = treated cotton, 24 hours, load 4.04E+07

`C[N+](C)(CCCNS(=O)(=O)c1cccc2ccccc12)CCCOc1ccc(C(=O)c2ccccc2)cc1.[Br-]` [3-(4-benzoylphenoxy)-N,N-dimethyl-N-(3-(naphthalene-1-sulfonamido)propyl)propan-1-aminium bromide] was tested, and the “activity against Arthrobacter spp. (in words)” value (shortened to “activity”) (treated polyethylene coupons, compared to untreated control (FIG. 5)) was “excellent activity”.
In the case of `CO[Si](CCC[N+](C)(C)CCCNS(=O)(=O)c1ccccc1)(OC)OC.[Cl-]` [Example 1a, N,N-dimethyl-3-(phenylsulfonamido)-N-(3-(trimethoxysilyl)propyl)propan-1-aminium chloride], the “activity” value [1] was “eradicated within three hours; also recorded: excellent activity”, the Average [2] was 0.00E+00 cfu and the “A (cfu)” value [2] was 0.00E+00 cfu. The “B (cfu)” value [2] was 0.00E+00 cfu, the “C (cfu)” value [2] was 0.00E+00 cfu and the Average [3] was 0.00E+00 cfu. The “A (cfu)” value [3] was 0.00E+00 cfu, the “B (cfu)” value [3] was 0.00E+00 cfu and the “C (cfu)” value [3] was 0.00E+00 cfu.
For `C[N+](C)(CCCNS(=O)(=O)c1ccccc1)CCCOc1ccc(C(=O)c2ccccc2)cc1.[Br-]` [Example 1c, 3-(4-benzoylphenoxy)-N,N-dimethyl-N-(3-(phenylsulfonamido)propyl) propan-1-aminium bromide], the “activity” value (treated polyethylene coupons, compared to untreated control (FIG. 5), listed as 3-(4-benzoylphenoxy)-N,N-dimethyl-N-(3-(phenyl sulfonamido)propyl)propan- 1-amin) was “excellent activity”, the “activity” value (treated polyethylene coupons, compared to untreated control (FIG. 5), listed as 3-(4-benzoylphenoxy)-N,N-dimethyl-N-(3-(phenylsulfonamido)propyl)propan-1-aminiu) was “eradicated within three hours” and the Average [4] was 0.00E+00 cfu. For the same molecule, the “A (cfu)” value [4] was 0.00E+00 cfu, the “B (cfu)” value [4] was 0.00E+00 cfu and the “C (cfu)” value [4] was 0.00E+00 cfu. The Average [5] was 0.00E+00 cfu, the “A (cfu)” value [5] was 0.00E+00 cfu and the “B (cfu)” value [5] was 0.00E+00 cfu. For the same molecule, the “C (cfu)” value [5] was 0.00E+00 cfu.
For `CO[Si](CCC[N+](C)(C)CCCNS(=O)(=O)c1ccc(C)cc1)(OC)OC.[Cl-]` [Example 2a, N,N-dimethyl-3-(4-methylphenylsulfonamido)-N-(3-(trimethoxysilyl)propyl) propan-1-aminium chloride], the “activity” value (treated cotton, compared to untreated control (FIG. 3, FIG. 4), listed as N,N-dimethyl-3-(4-methylphenyl sulfonamido)-N-(3-(trimethoxysilyl)propyl)propan-) was “excellent activity”, the “activity” value (treated cotton, compared to untreated control (FIG. 3, FIG. 4), listed as N,N-dimethyl-3-(4-methylphenylsulfonamido)-N-(3-(trimethoxysilyl) propyl)propan-) was “excellent activity” and the “activity” value (treated cotton, compared to untreated control (FIG. 3, FIG. 4), listed as N,N-dimethyl-3-(4-methylphenylsulfonamido)-N-(3-(trimethoxysilyl)propyl)propan-1) was “eradicated within three hours”. For the same molecule, the Average [6] was 0.00E+00 cfu, the “A (cfu)” value [6] was 0.00E+00 cfu and the “B (cfu)” value [6] was 0.00E+00 cfu. For the same molecule, the “C (cfu)” value [6] was 0.00E+00 cfu, the Average [7] was 0.00E+00 cfu and the “A (cfu)” value [7] was 0.00E+00 cfu. For the same molecule, the “B (cfu)” value [7] was 0.00E+00 cfu, the “C (cfu)” value [7] was 0.00E+00 cfu and the Average [8] was 0.00E+00 cfu. For the same molecule, the “A (cfu)” value [8] was 0.00E+00 cfu, the “B (cfu)” value [8] was 0.00E+00 cfu and the “C (cfu)” value [8] was 0.00E+00 cfu. For the same molecule, the Average [9] was 0.00E+00 cfu, the “A (cfu)” value [9] was 0.00E+00 cfu and the “B (cfu)” value [9] was 0.00E+00 cfu. For the same molecule, the “C (cfu)” value [9] was 0.00E+00 cfu.
With `CO[Si](CCC[N+](C)(C)CCCNS(=O)(=O)c1c(C)cc(C)cc1C)(OC)OC.[Cl-]` [Example 3a, N,N-dimethyl-3-(trimethoxysilyl)-N-(3-(2,4,6-trimethylphenylsulfonamido)propyl)propan-1-aminium chloride] the “activity” value (treated cotton, compared to untreated control (FIG. 3, FIG. 4), listed as N,N-dimethyl-3-(trimethoxysilyl)-N-(3-(2,4,6-trimethyl phenylsulfonamido)propyl)) was “excellent activity”, the “activity” value (treated cotton, compared to untreated control (FIG. 3, FIG. 4), listed as N,N-dimethyl-3-(trimethoxysilyl)-N-(3-(2,4,6-trimethylphenylsulfonamido)propyl)p) was “eradicated within three hours” and the Average [7] was 0.00E+00 cfu. The “A (cfu)” value [7] was 0.00E+00 cfu, the “B (cfu)” value [7] was 0.00E+00 cfu and the “C (cfu)” value [7] was 0.00E+00 cfu. For the same molecule, the Average [9] was 0.00E+00 cfu, the “A (cfu)” value [9] was 0.00E+00 cfu and the “B (cfu)” value [9] was 0.00E+00 cfu. For the same molecule, the “C (cfu)” value [9] was 0.00E+00 cfu.
In the case of `CO[Si](CCC[N+](C)(C)CCCNS(=O)(=O)c1cccc2ccccc12)(OC)OC.[Cl-]` [Example 5a, N,N-dimethyl-3-(naphthalene-1-sulfonamido)-N-(3-(trimethoxysilyl)propyl)propan-1-aminium chloride], the “activity” value [1] was “eradicated within three hours; also recorded: excellent activity”, the Average [2] was 0.00E+00 cfu and the “A (cfu)” value [2] was 0.00E+00 cfu. The “B (cfu)” value [2] was 0.00E+00 cfu, the “C (cfu)” value [2] was 0.00E+00 cfu and the Average [3] was 0.00E+00 cfu. For the same molecule, the “A (cfu)” value [3] was 0.00E+00 cfu, the “B (cfu)” value [3] was 0.00E+00 cfu and the “C (cfu)” value [3] was 0.00E+00 cfu.
In the case of `C[N+](C)(CCCNS(=O)(=O)c1cccc2ccccc12)CCCOc1ccc(C(=O)c2ccccc2)cc1.[Br-]` [Example 5c, 3-(4-benzoylphenoxy)-N,N-dimethyl-N-(3-(naphthalene-1-sulfonamido)propyl)propan-1-aminium bromide], the “activity” value (treated polyethylene coupons, compared to untreated control (FIG. 5), listed as 3-(4-benzoylphenoxy)-N,N-dimethyl-N-(3-(naphthalene-1-sulfonamido)propyl)propan-) was “eradicated within three hours”, the Average [4] was 0.00E+00 cfu and the “A (cfu)” value [4] was 0.00E+00 cfu. For the same molecule, the “B (cfu)” value [4] was 0.00E+00 cfu, the “C (cfu)” value [4] was 0.00E+00 cfu and the Average [5] was 0.00E+00 cfu. The “A (cfu)” value [5] was 0.00E+00 cfu, the “B (cfu)” value [5] was 0.00E+00 cfu and the “C (cfu)” value [5] was 0.00E+00 cfu.
